Data on 18 compounds can be found in patent publication US9481676B2, “Azepino[4,5-B]indoles and methods of use” (Medivation Technologies, Inc., priority 2008, dated 2016).

The target of experiment [1] is T1, human recombinant serotonin (5-Hydroxytryptamine) 5-HT2C receptor (Homo sapiens, UniProt P28335).
T1 construct: expressed in transfected cells; host or cells: CHO-K1 cells
T1 sequence (P28335 33-458): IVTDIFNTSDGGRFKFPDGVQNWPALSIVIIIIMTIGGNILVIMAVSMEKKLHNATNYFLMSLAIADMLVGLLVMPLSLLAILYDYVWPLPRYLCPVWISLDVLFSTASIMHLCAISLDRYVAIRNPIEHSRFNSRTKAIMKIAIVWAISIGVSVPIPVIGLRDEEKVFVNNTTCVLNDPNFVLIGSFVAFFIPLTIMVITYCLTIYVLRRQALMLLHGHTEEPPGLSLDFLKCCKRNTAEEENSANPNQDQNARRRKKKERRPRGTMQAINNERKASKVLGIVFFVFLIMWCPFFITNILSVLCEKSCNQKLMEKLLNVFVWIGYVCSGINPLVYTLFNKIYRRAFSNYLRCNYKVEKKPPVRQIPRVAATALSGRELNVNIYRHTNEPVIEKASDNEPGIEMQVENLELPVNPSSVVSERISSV
Briefly: Serotonin 5-HT2C radioligand binding ([3H]Mesulergine). As to conditions: compound at 1 μM; read-out: Serotonin (1 μM) 5-HT2C, percent inhibition of specific binding. A digest of the protocol: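 Membranes from CHO-K1 cells expressing human 5-HT2C, incubated with 1 nM [3H]mesulergine for 60 min at 25 °C in 50 mM Tris-HCl pH 7.4 with ascorbic acid and pargyline.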

Experiment [2] concerns the target T2, human recombinant dopamine D2L receptor (Homo sapiens, UniProt P14416).
T2 construct: expressed in transfected cells; host or cells: CHO cells
Briefly: Dopamine D2L radioligand binding ([3H]Spiperone). The note with it: compound at 1 μM; read-out: Dopamine (1 μM) D2L, percent inhibition of specific binding. A digest of the protocol:
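Binding measured by filtration and counting, reported as % inhibition of specific [3H]spiperone binding (0.16 nM tracer; 10 μM haloperidol for nonspecific). Compounds tested at ≤1 μM in 1% DMSO for 120 min at 25° C against CHO-expressed human D2L in pH 7.4 Tris-HCl buffer.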

In experiment [3] the target is T3, human recombinant serotonin (5-Hydroxytryptamine) 5-HT6 receptor (Homo sapiens, UniProt P50406).
T3 construct: expressed in transfected cells; host or cells: human HeLa cells
T3 sequence (P50406 whole entry): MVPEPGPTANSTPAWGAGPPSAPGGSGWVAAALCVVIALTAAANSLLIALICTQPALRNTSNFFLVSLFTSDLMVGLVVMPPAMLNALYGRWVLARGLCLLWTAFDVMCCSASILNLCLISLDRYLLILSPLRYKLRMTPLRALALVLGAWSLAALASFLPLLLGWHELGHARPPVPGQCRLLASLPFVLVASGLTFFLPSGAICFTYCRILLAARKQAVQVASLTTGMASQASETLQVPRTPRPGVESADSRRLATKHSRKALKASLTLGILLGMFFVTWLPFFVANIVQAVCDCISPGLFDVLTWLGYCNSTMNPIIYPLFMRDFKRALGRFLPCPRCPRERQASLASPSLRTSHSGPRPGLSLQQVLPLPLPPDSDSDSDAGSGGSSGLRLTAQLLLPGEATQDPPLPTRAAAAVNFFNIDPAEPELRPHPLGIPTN
The experiment in a line: Serotonin 5-HT6 radioligand binding ([3H]LSD). As to conditions: compound at 1 μM; read-out: Serotonin (1 μM) 5-HT6, percent inhibition of specific binding. A digest of the protocol: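 Human recombinant 5-HT6 receptor from HeLa cells incubated with 1.5 nM [3H]LSD for 120 min at 37° C in 50 mM Tris-HCl pH 7.4, 150 mM NaCl, 2 mM ascorbic acid, 0.001% BSA. Nonspecific binding defined with 5 μM serotonin; bound ligand counted after filtration.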

Experiment [4] addresses T4, human recombinant adrenergic α2B receptor (Homo sapiens, UniProt P18089).
T4 construct: expressed in transfected cells; host or cells: CHO-K1 cells
T4 sequence (P18089 1-450): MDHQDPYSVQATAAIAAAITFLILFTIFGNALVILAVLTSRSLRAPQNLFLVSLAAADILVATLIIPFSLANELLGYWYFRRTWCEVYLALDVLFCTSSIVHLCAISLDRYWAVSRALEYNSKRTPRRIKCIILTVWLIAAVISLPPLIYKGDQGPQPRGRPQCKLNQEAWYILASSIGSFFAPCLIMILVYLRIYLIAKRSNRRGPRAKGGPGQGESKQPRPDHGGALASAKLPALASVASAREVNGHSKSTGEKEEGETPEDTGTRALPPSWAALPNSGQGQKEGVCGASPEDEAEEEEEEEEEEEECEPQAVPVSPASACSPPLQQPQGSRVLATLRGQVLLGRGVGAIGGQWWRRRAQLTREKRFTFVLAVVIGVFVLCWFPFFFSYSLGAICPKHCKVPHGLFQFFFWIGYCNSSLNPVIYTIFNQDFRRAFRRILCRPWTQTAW
The experiment in a line: Adrenergic alpha2B radioligand binding ([3H]Rauwolscine). As to conditions: compound at 1 μM; read-out: Adrenergic (1 μM) α2B, percent inhibition of specific binding. A digest of the protocol: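 CHO-K1-expressed receptor in Tris-HCl pH 7.4 with MgCl2, EDTA, BSA, incubated 60 min at 25° C with 2.5 nM [3H]Rauwolscine; 10 μM prazosin defines non-specific binding.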

T2 sequence (P14416 whole entry): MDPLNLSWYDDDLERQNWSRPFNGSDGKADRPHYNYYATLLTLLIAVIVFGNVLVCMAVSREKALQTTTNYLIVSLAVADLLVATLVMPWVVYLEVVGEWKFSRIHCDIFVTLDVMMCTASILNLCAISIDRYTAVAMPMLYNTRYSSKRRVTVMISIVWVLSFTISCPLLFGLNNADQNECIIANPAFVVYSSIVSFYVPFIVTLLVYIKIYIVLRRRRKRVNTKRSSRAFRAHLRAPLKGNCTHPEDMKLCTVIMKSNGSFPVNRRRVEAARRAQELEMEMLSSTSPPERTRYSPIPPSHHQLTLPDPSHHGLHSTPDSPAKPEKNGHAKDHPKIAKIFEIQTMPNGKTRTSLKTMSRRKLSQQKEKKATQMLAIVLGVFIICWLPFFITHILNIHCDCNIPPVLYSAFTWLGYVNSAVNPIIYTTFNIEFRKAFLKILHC

For the compound `CN1CCc2c(n(CCc3ccc(C(F)(F)F)nc3)c3ccc(Cl)cc23)CC1` [Compound No. 1, 9-chloro-6-(2-(6-(trifluoromethyl)pyridin-3-yl)ethyl)-1,2,3,4,5,6-hexahydro-3-methylazepino[4,5-b]indole], the inhibition (in general, the change of the read-out against control, counted positive when it falls) at 1 µM stood at 79% in experiment [1], 23% in experiment [2], 86% in experiment [3] and 107% in experiment [4].

On to `C/C(=C/n1c2c(c3cc(Cl)ccc31)CCN(C)CC2)c1ccc(Cl)cc1Cl` [Compound No. 152, (Z)-9-chloro-6-(2-(2,4-dichlorophenyl)prop-1-enyl)-1,2,3,4,5,6-hexahydro-3-methylazepino[4,5-b]indole], for which the inhibition at 1 µM in experiment [1] was determined as 94%; in experiment [2], 3%; in experiment [3] it was 73%; in experiment [4] it was 88%.

Take `COc1ccc(C(O)Cn2c3c(c4cc(C)ccc42)CCN(C)CC3)cc1OC` (stereo not drawn) [Compound No. 227, 1-(3,4-dimethoxyphenyl)-2-(3,9-dimethyl-2,3,4,5-tetrahydroazepino[4,5-b]indol-6(1H)-yl)ethanol]: the inhibition at 1 µM in experiment [1] amounted to 66%; in experiment [2], 5%; in experiment [3], 30%; in experiment [4], 98%.

On to `Cc1ccc2c(c1)c1c(n2CC(=O)N2CCC(C)CC2)CCN(C)CC1` [Compound No. 225, 2-(3,9-dimethyl-2,3,4,5-tetrahydroazepino[4,5-b]indol-6(1H)-yl)-1-(4-methylpiperidin-1-yl)ethanone], for which the inhibition at 1 µM in experiment [1] amounted to 44%; in experiment [2], 3%; in experiment [3] it was 16%; in experiment [4], 13%.

For the compound `CN1CCc2c(n(/C=C/c3ccccc3F)c3ccc(Cl)cc23)CC1` [Compound No. 83, (E)-9-chloro-6-(2-fluorostyryl)-3-methyl-1,2,3,4,5,6-hexahydro azepino[4,5-b]indole], the inhibition at 1 µM in experiment [1] amounted to 100%; in experiment [2], 61%; in experiment [3] it was 103%; in experiment [4] it was 113%.

Turning to `CC1CCN(C(=O)Cn2c3c(c4cc(Cl)ccc42)CCN(C)CC3)CC1` [Compound No. 76, 2-(9-chloro-2,3,4,5-tetrahydro-3-methylazepino[4,5-b]indol-6(1H)-yl)-1-(4-methylpiperidin-1-yl)ethanone], the inhibition at 1 µM in experiment [1] came to 78%; in experiment [2], 0%; in experiment [3], 39%; in experiment [4], 31%.

In the case of `Cc1ccc2c(c1)c1c(n2CC(=O)Nc2ccccc2)CCN(C)CC1` [Compound No. 79, 2-(2,3,4,5-tetrahydro-3,9-dimethylazepino[4,5-b]indol-6(1H)-yl)-N-phenylacetamide], the inhibition at 1 µM in experiment [1] is -18%; in experiment [2], -7%; in experiment [3] it was -7%; in experiment [4], 20%.

As to `C=C(Cn1c2c(c3cc(Cl)ccc31)CCN(C)CC2)c1ccc(F)cc1` [Compound No. 82, 9-chloro-6-(2-(4-fluorophenyl)allyl)-3-methyl-1,2,3,4,5,6-hexahydroazepino[4,5-b]indole], the inhibition at 1 µM in experiment [1] is 98%; in experiment [2] it was 90%; in experiment [3], 104%; in experiment [4], 91%.

`Cc1cncc(CCn2c3c(c4cc(Cl)ccc42)CCN(C)CC3)c1` [Compound No. 3, 9-chloro-3-methyl-6-(2-(5-methylpyridin-3-yl)ethyl)-1,2,3,4,5,6-hexahydroazepino[4,5-b]indole]: the inhibition at 1 µM in experiment [1] is 94%; in experiment [2], 27%; in experiment [3], 92%; in experiment [4] it was 112%.

On to `COc1ccc(/C=C/n2c3c(c4cc(Cl)ccc42)CCN(C)CC3)cc1` [Compound No. 78, 6-(4-methoxystyryl)-9-chloro-1,2,3,4,5,6-hexahydro-3-methylazepino[4,5-b]indole], for which the inhibition at 1 µM in experiment [1] worked out at 98%; in experiment [2], 58%; in experiment [3], 91%; in experiment [4] it was 111%.

As for `COc1ccc(C(O)Cn2c3c(c4cc(Cl)ccc42)CCN(C)CC3)cc1OC` (stereo not drawn) [Compound No. 77, 2-(9-chloro-2,3,4,5-tetrahydro-3-methylazepino[4,5-b]indol-6(1H)-yl)-1-(3,4-dimethoxyphenyl)ethanol], the inhibition at 1 µM in experiment [1] was determined as 72%; in experiment [2], 16%; in experiment [3] it was 33%; in experiment [4] it was 113%.

With `CN1CCc2c(n(/C=C/c3ccccc3)c3ccc(Cl)cc23)CC1` [Compound No. 228, (E)-9-chloro-3-methyl-6-styryl-1,2,3,4,5,6-hexahydroazepino[4,5-b]indole], the inhibition at 1 µM in experiment [1] was 97%; in experiment [2], 73%; in experiment [3], 104%; in experiment [4], 110%.

In the case of `C/C(=C\n1c2c(c3cc(Cl)ccc31)CCN(C)CC2)c1ccc(F)cc1` [Compound No. 2, 9-chloro-6-((E)-2-(4-fluorophenyl)prop-1-enyl)-1,2,3,4,5,6-hexahydro-3-methylazepino[4,5-b]indole], the inhibition at 1 µM in experiment [1] was 88%; in experiment [2] it was 97%; in experiment [3] it was 103%; in experiment [4], 111%.

For the compound `Cc1ccc2c(c1)c1c(n2CC(=O)N2CCNCC2)CCN(C)CC1` [Compound No. 224, 2-(3,9-dimethyl-2,3,4,5-tetrahydroazepino[4,5-b]indol-6(1H)-yl)-1-(piperazin-1-yl)ethanone], the inhibition at 1 µM was 11% in experiment [1], -2% in experiment [2], -4% in experiment [3] and -6% in experiment [4].

`C/C(=C/n1c2c(c3cc(C)ccc31)CCN(C)CC2)c1ccc(Cl)cc1Cl` [Compound No. 174, (Z)-6-(2-(2,4-dichlorophenyl)prop-1-enyl)-1,2,3,4,5,6-hexahydro-3,9-dimethylazepino[4,5-b]indole]: the inhibition at 1 µM in experiment [1] amounted to 101%; in experiment [2], 34%; in experiment [3] it was 100%; in experiment [4] it was 105%.

As for `COc1ccc(/C=C/n2c3c(c4cc(C)ccc42)CCN(C)CC3)cc1F` [Compound No. 180, (E)-6-(3-fluoro-4-methoxystyryl)-1,2,3,4,5,6-hexahydro-3,9-dimethylazepino[4,5-b]indole], the inhibition at 1 µM is 100% in experiment [1], 62% in experiment [2], 95% in experiment [3] and 103% in experiment [4].

Take `COc1ccc(/C=C/n2c3c(c4cc(Cl)ccc42)CCN(C)CC3)cc1OC` [Compound No. 226, (E)-9-chloro-6-(3,4-dimethoxystyryl)-3-methyl-1,2,3,4,5,6-hexahydroazepino[4,5-b]indole]: the inhibition at 1 µM came to 82% in experiment [1], 37% in experiment [2], 36% in experiment [3] and 102% in experiment [4].

As to `COc1ccc(/C=C/n2c3c(c4cc(Cl)ccc42)CCN(C)CC3)cc1F` [Compound No. 158, (E)-6-(3-fluoro-4-methoxystyryl)-9-chloro-1,2,3,4,5,6-hexahydro-3-methylazepino[4,5-b]indole], the inhibition at 1 µM turned out to be 99% in experiment [1], 65% in experiment [2], 93% in experiment [3] and 109% in experiment [4].
